The record followed here is patent US12622901B2, “Compounds for tau protein degradation” (Dana-Farber Cancer Institute, Inc., priority 2017, dated 2026).

Data set [1] can be described thus: Dose formulation in 20% PEG400 in water. In kind it is physicochemical. The following applies: 5.00 mg/mL in 20% PEG400 in water. On the procedure:
(§1) For intraperitoneal (IP) dosing, the dose formulation was administered with a dose volume determined by the animals' body weight collected on the morning of dosing day.

For data set [2], the system named is A152T neurons. Nature of the data set: Neuronal viability / rescue of stress vulnerability to β-amyloid (1-42) peptide. The conditions noted are these: A152T neurons differentiated 8 weeks, FIG. 7.
Data set [3] is described as follows: In vivo pharmacokinetic study of plasma and brain tissue in mice. The conditions noted are these: male CD-1 mice, 30 mg/kg intraperitoneal. On the procedure:
(§2) To determine whether the compounds of the present disclosure are capable of crossing the blood brain barrier (BBB), a key property for use of these compounds as CNS therapeutics, compound 3 was administered to mice in a pharmacokinetic study of plasma and brain tissue. A stable formulation compatible with chronic administration was prepared prior to administration, and analytical methods for measuring concentration of the compound in plasma and brain tissue were developed. Mice were additionally monitored for tolerability for up to 24 hours.
Animal Husbandry: Male CD-1 mice were group housed during a 2-3 day acclimation prior to the study at an animal room environment with a controlled environment (target conditions: temperature 18-26° C., relative humidity 30-70%, 12 hours artificial light and 12 hours dark). All animals had access to Certified Rodent Diet and water ad libitum.
as §1
Sample Collection & Processing:
Blood Samples: A blood sample (about 0.03 mL per time point) was collected from each mouse into polypropylene tubes at each timepoint. All blood samples were transferred into pre-chilled commercial EDTA-K2 tubes or pre-chilled plastic microcentrifuge tubes containing 2 μL of EDTA-K2 as anti-coagulant and placed on wet ice until centrifugation. Each collected blood sample was centrifuged for 15 minutes at 4° C. and 3000 g for plasma collection. Plasma from each mouse was transferred into a pre-labeled polypropylene tube in dry ice at each time point. After terminal collection, all plasmas were stored at approximately −80° C. until bioanalysis.
Brain Samples: Whole brain was dissected at each designated time point and rinsed twice cold in deionized water before processing. They were then blotted on filter paper, weighed and homogenized with 5-fold of cold 15 mM PBS/MeOH (V:V, 2:1) using mechanical method. The samples were kept with ice water when homogenizing, and further stored at −80° C. until bioanalysis.
Bioanalytical Method Development: A LC-MS/MS method was developed and used for the quantitative determination of test compound concentration in blood and brain with a calibration curve applied to determine the limits of quantification.
In Vivo Sample Analysis: Plasma and brain concentration versus time data along with C^max, Tmax, T1/2, and AUC(0-t) was analyzed by non-compartmental approaches using the Phoenix WinNonlin 6.3 software program.

Data set [4] deals with T1, tau protein (Homo sapiens, UniProt P10636, A469T).
T1 construct: cultured human differentiated frontotemporal lobar dementia (FTD) neurons; endogenous in cells; host or cells: human differentiated FTD neurons, tau-A152T (line 19-5-RC6)
T1 sequence (P10636 1-441 isoform P10636-8 A152T): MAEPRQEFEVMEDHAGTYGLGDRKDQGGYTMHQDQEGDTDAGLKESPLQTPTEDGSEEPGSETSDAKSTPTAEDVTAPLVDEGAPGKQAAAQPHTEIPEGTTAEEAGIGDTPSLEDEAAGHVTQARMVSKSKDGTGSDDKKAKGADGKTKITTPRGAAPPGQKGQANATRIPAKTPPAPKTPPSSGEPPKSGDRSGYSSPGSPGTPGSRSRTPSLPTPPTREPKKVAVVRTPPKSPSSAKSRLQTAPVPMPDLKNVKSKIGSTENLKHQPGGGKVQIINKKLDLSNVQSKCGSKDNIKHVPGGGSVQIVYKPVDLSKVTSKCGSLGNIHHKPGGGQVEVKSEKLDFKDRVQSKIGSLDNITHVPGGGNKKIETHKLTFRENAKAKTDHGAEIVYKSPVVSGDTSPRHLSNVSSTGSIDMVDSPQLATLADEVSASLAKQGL
Nature of the data set: Tau degradation assay (western blot) in human tau-A152T neurons. The following applies: 6-week differentiated A152T neurons; treatment for 24 hours; FIG. 6. The data set is classed as cell-based. Here is the method:
Example compounds 1-12 were evaluated for their ability to degrade tau protein in cultured human differentiated frontotemporal lobar dementia (FTD) neurons. […] For each condition, 1 well of differentiated neuronal cells (6 well-plate) was washed and collected in PBS, pelleted and lysed in RIPA buffer (Boston Bio-Products) with 2% SDS (Sigma), protease inhibitors (Roche Complete Mini tablets), and phosphatase inhibitors (Sigma), followed by sonication in a water sonicator (Bransonic Ultrasonic Baths, Thomas Scientific) for 5 min, and centrifugation at 20,000 g for 15 min. Supernatants were transferred to new tubes, total protein concentration was quantified with the Pierce BCA Protein Assay Kit (Thermo), and SDS-PAGE gels were loaded with 10 μg total protein per well (pre-boiled samples). Western blots were performed with the Novex NuPAGE SDS-PAGE Gel System (Invitrogen). All samples were resolved in 7% Tris-Acetate gels with Tris-Acetate running buffer (Invitrogen). Blots were probed with antibodies against total tau (TAU5) and phosphosrylated tau (Ser396), along with β-actin as a loading control; followed by corresponding HRP-linked secondary antibodies (Cell Signaling Technology), and SuperSignal West Pico Chemiluminescent Substrate (Thermo) detection. Membranes were exposed to autoradiographic film (LabScientific) and films were scanned using an Epson Perfection V800 Photo Scanner. Protein band intensities (pixel mean intensity) were quantified using Adobe Photoshop CS5 Histogram function. Whereas the vehicle alone (DMSO) had no effect on tau, varying degrading activity was observed amongst the compounds, however with overall similar relative levels of degrading activity between tau-A152T neurons and tau-P301L neurons. Compounds were added at the doses indicated of either 0.1, 1, 5, or 10 μM.
Four-week differentiated neurons, both non-mutant (8330-8) and tau-A152T (19-5-RC6) were employed. The neurons were treated with T807 for 24 hours (at 10 μg/mL=59.4 μM). One well of differentiated neuronal cells (6 well-plate, treated or untreated) was washed and collected in PBS, pelleted and directly lysed in 200 μL of Sample Buffer (New England Biolabs) supplemented with 3X DTT, boiled for 15 min and 10 μL of each lysate was run by SDS-PAGE in a 4-12% Bis-Tris Gel, with MOPS running buffer. Blots were probed with antibodies to total tau (DA9) and phosphorylated tau (Ser396, PHF1, AT8) along with GAPDH as a loading control.
Example compounds 2-5 were reevaluated for their ability to degrade tau protein in human FTD neurons as well as evaluate their effect on E3 ubiquitin ligases CRBN, VHL, and CHIP (FIG. 4A-E). For each control and treatment, 1 well of differentiated neuronal cells (6 well-plate) was washed and collected in PBS, pelleted and lysed in RIPA buffer (Boston Bio-Products) with 2% SDS (Sigma), protease inhibitors (Roche Complete Mini tablets), and phosphatase inhibitors (Sigma), followed by sonication in a water sonicator (Bransonic Ultrasonic Baths, Thomas Scientific) for 5 min, and centrifugation at 20,000 g for 15 min. Supernatants were transferred to new tubes, total protein concentration was quantified with the Pierce BCA Protein Assay Kit (Thermo), and SDS-PAGE gels were loaded with 10 μg total protein per well (pre-boiled samples). […] Protein band intensities (pixel mean intensity) were quantified using Adobe Photoshop CS5 Histogram function. […]
A general note: Immunoblotting shows a protein as a band on a membrane.

A short description of data set [5]: Tolerability monitoring of mice for up to 24 hours. The data set is classed as in vivo. The following applies: male CD-1 mice, 30 mg/kg intraperitoneal, monitored up to 24 hours. Here is the method:
as §2

“Also recorded” adds a separate entry of the source.

With `O=C(CCc1ccc2c(c1)[nH]c1ccncc12)NCCOCCOCCNc1cccc2c1C(=O)N(C1CCC(=O)NC1=O)C2=O` (stereo not shown) [Compound 3, N-(2-(2-(2-((2-(2,6-dioxopiperidin-3-yl)-1,3-dioxoisoindolin-4-yl)amino)ethoxy)ethoxy)ethyl)-3-(5H-pyrido[4,3-b]indol-7-yl)propanamide], in data set [1], the “appearance/stability of dose formulation” value is recorded as “clear, stable solution”. In addition, the “rescue of stress vulnerability” value in data set [2] (8 h pre-treatment, then 10 μM β-amyloid (1-42) peptide for 16 h) is listed as “effective at rescuing stress vulnerability”. Besides, the “effect on neuronal viability” value in data set [2] (compound alone) is given as “no effect on neuronal viability”. Besides, the “brain penetration / crossing the blood-brain barrier” value in data set [3] (20% PEG400/water, n=3 per group, 30 mg/kg) is recorded as “capable of brain penetration; also recorded: capable of crossing the blood-brain barrier”. In data set [3] (brain), the “AUC0-last, Mean Brain” value was found to be 74.3 ng·h/mL; the “Cmax, Mean Brain” value was 56.4 ng/mL; the “Tmax, Mean Brain” value was found to be 0.500 h. In data set [3] (plasma), the “AUC0-last, Mean Plasma” value stood at 6938 ng·h/mL; the “Cmax, Mean Plasma” value turned out to be 4640 ng/mL; the “T1/2, Mean Plasma” value is listed as 7.23 h; the “Tmax, Mean Plasma” value worked out at 1.00 h. Further, the “dose-dependency of effect on tau” value in data set [4] is on record as “dose dependent effect on tau”. Moreover, in data set [5], the “tolerability / adverse effects” value was “no adverse effects were observed; also recorded: well tolerated”.
